We go through 15 compounds from patent US5008271A, “DC-88A derivatives” (Kyowa Hakko Kogyo Co., Ltd., priority 1988, dated 1991).

The structures appear in SMILES notation. pIC50: −log10 of the molar value. Read-outs that look alike come from different tables or passages of the source.

The subject of data set [1] is dd strain male mice. Kind of data set: Acute toxicity test (minimum lethal dose). Type of data set: in vivo. Conditions: intraperitoneal, mortality observed for 14 days. The method, then: Using dd strain male mice weighing 20 ±l g, a test compound was intraperitoneally administered. MLD (the minimum lethal dose) was determined by observing the mortality for 14 days after administration.

In data set [2] the test system is HeLa S3 cells. Put plainly: Growth inhibition test using HeLa S3 cells. Type of data set: cell-based. How it is done: The pharmacological activity of Compound (I), Compound (II) and Compound (III) was determined by growth inhibition test using HeLa S3 cells.
Test on growth inhibition of HeLa S3 cells:
HeLa S3 cells diluted to 3×10^4 cells/ml with MEM medium containing 10% calf fetal serum and 2 mM glutamine were separately distributed by 0.1 ml each in each well of a 96 well microtiter plate.
After culturing at 37° C. overnight in a CO2 incubator, 0.05 ml each of a test sample appropriately diluted with MEM medium was added to each well.
After culturing the cells for 72 hours in the CO2 incubator, the culture supernatant was removed. After washing once with phosphate buffered physiological saline (PBS), 0.1 ml each of MEM medium containing 0.02% neutral red was added to each well and then cultured at 37° C. for an hour in the CO2 -incubator to stain the cells. After removing the culture supernatant, the cells were washed once with physiological saline, and the dye was extracted with 0.001 N HCl/30% ethanol. Absorbance at 550 nm of the extract was measured with a microplate reader. By comparing absorbance of extract of intact cells with that of the cells treated with a test compound in known concentrations IC50, i.e. the concentration which inhibited growth of the cells by 50% was determined.

Data set [3] deals with lymphocytic leukemia P388. Conditions: lymphocytic leukemia P388, etc.; cited from earlier work.
Data set [4] deals with various bacteria. As to conditions: against various bacteria; cited from earlier work.
Where [5] appears, read: Homo sapiens, HeLa S3 cells, 72 hours, neutral red staining, read-out: IC50 (concentration which inhibited growth of the cells by 50%).
Setting [6] is: Homo sapiens, HeLa S3, 72 h, read-out: IC50 (concentration which inhibited growth of the cells by 50%), HeLa S3 cells, 72 hours, neutral red staining.

Consider `COC(=O)C1(C)Nc2c(O[Si](C)(C)C(C)(C)C)cc3c(c2C1=O)C(CBr)CN3C(=O)c1cc2cc(OC)c(OC)c(OC)c2[nH]1` (stereo not drawn) [Compound 1], for which, in data set [1], the “Acute Toxicity (MLD), minimum lethal dose” value (“Acute Toxicity (MLD)” for short) is on record as 0.25 mg/kg. Same read-out and setting: the result for `COC(=O)C1(C)Nc2c(O[Si](C)(C)C(C)(C)C)cc3c(c2C1OC(C)=O)C(CBr)CN3C(=O)c1cc2cc(OC)c(OC)c(OC)c2[nH]1` (stereo not drawn) [Compound 8] reads 2.5 mg/kg. For `COc1cc2cc(C(=O)N3CC(CBr)c4c3cc(O)c3c4C(=O)C(C)(C(=O)OCc4ccccc4)N3)[nH]c2c(OC)c1OC` (stereo not drawn) [Compound 21], the pIC50 in data set [2] (setting [5]) was 8.72.

`COc1cc2cc(C(=O)N3CC(CBr)c4c3cc(O)c3c4C(O)C(C)(COC(C)=O)N3)[nH]c2c(OC)c1OC` (stereo not drawn) [Compound 27]: in data set [2] (setting [5]), the pIC50 was 8.48. For `COC(=O)C1(C)Nc2c(OC(C)=O)cc3c(c2C1=O)C(CBr)CN3C(=O)c1cc2cc(OC)c(OC)c(OC)c2[nH]1` (stereo not drawn) [Compound 7], the “Acute Toxicity (MLD)” value in data set [1] is given as 0.063 mg/kg.

With `COC(=O)C1(C)NC2=C(C1=O)C13CC1CN(C(=O)c1cc4cc(OC)c(OC)c(OC)c4[nH]1)C3=CC2=O` (stereo not drawn) [DC-88A], the pIC50 in data set [2] (setting [6]) is 10.41. Further, the “antitumor activity against lymphocytic leukemia P388” value in data set [3] is listed as “an antitumor activity against lymphocytic leukemia P388, etc”. Besides, the antibacterial activity entry in data set [4] was “exhibits not only an antibacterial activity against various bacteria”. In the case of `C=CCOC(=O)C1(C)Nc2c(O)cc3c(c2C1=O)C(CBr)CN3C(=O)c1cc2cc(OC)c(OC)c(OC)c2[nH]1` (stereo not drawn) [Compound 19], the pIC50 in data set [2] (setting [5]) is 9.03. In the case of `C=CCC1(C)Nc2c(O)cc3c(c2C1=O)C(CBr)CN3C(=O)c1cc2cc(OC)c(OC)c(OC)c2[nH]1` (stereo not drawn) [Compound 25], the pIC50 in data set [2] (setting [5]) was 9.54. As for `CCCCCCCCCCCC(=O)Oc1cc2c(c3c1NC(C)(C(=O)OC)C3=O)C(CBr)CN2C(=O)c1cc2cc(OC)c(OC)c(OC)c2[nH]1` (stereo not drawn) [Compound 15], the pIC50 in data set [2] (setting [6]) was 10.38. The “Acute Toxicity (MLD)” value in data set [1] is reported as 0.5 mg/kg. Regarding `COC(=O)C1(C)Nc2c(O)cc3c(c2C1=O)C(CBr)CN3C(=O)c1cc2cc(OC)c(OC)c(OC)c2[nH]1` (stereo not drawn) [DC-89B2, reference compound], the pIC50 in data set [2] (setting [6]) was 10.85.

With `CCOC(=O)C1(C)Nc2c(O)cc3c(c2C1=O)C(CBr)CN3C(=O)c1cc2cc(OC)c(OC)c(OC)c2[nH]1` (stereo not drawn) [Compound 17], in data set [2] (setting [5]), the pIC50 was 10.72.

As for `COC(=O)C1(C)Nc2c(OC(=O)N(C)C)cc3c(c2C1=O)C(CBr)CN3C(=O)c1cc2cc(OC)c(OC)c(OC)c2[nH]1` (stereo not drawn) [Compound 13], the “Acute Toxicity (MLD)” value in data set [1] was found to be 2.5 mg/kg. With `C=CCOC(=O)Oc1cc2c(c3c1NC(C)(C(=O)OC)C3=O)C(CBr)CN2C(=O)c1cc2cc(OC)c(OC)c(OC)c2[nH]1` (stereo not drawn) [Compound 14], the pIC50 in data set [2] (setting [6]) was 9.85. In addition, the “Acute Toxicity (MLD)” value in data set [1] worked out at 0.5 mg/kg. For the compound `COC(=O)C1(C)Nc2c(O)cc3c(c2C1O)C(CBr)CN3C(=O)c1cc2cc(OC)c(OC)c(OC)c2[nH]1` (stereo not drawn) [Compound 6], the pIC50 in data set [2] (read-out: IC50 (concentration which inhibited growth of the cells by 50%), HeLa S3 cells, 72 hours, neutral red staining) was 9.70. For the same compound, in data set [1], the “Acute Toxicity (MLD)” value worked out at 1.3 mg/kg. Take `COC(=O)C1(C)Nc2c(O)cc3c(c2C1O)C(CBr)CN3C(=O)c1cc2cc(OC)c(OC)c(OC)c2[nH]1` (stereo not drawn) [Compound 5]: the pIC50 in data set [2] (setting [6]) was 9.59. Moreover, in data set [1], the “Acute Toxicity (MLD)” value amounted to 0.63 mg/kg.
